# From patent US10183038B2, “Method for preventing and treating renal disease” (L & F Research LLC, priority 2010, dated 2019)
# Tests used:
# [1] = tested on: patients at high risk for recurrent FSGS after transplantation; test: Clinical outcome after kidney transplantation in patients at high risk for recurrent FSGS, rituximab vs historical controls; assay type: in vivo, human
# SMPDL-3B [2] = biological target: T1, SMPDL-3B (Homo sapiens, UniProt Q92485); details: cited from earlier work
# T1 sequence (Q92485 19-455): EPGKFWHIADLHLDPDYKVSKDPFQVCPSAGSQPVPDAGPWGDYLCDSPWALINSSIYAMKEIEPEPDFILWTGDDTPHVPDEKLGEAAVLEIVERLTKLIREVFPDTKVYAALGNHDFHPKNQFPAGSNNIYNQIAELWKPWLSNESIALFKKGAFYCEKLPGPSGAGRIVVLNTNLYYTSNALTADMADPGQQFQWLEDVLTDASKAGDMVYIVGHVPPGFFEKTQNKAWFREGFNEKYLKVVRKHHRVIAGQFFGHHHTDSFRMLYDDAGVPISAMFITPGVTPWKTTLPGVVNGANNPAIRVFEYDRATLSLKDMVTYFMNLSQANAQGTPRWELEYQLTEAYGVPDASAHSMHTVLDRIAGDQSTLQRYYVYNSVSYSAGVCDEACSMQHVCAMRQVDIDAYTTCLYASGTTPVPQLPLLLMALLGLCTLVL
# CD19+ cells = test: CD19 count in transplanted FSGS patients after rituximab; assay type: in vivo, human; details: N = 27
# Description: W=white, B=black, M=male, F=female, ESRD=end stage renal disease, LD=living donor, DD=deceased donor. ΔeGFR: variation of eGFR. *p<0.05.
# SMPDL-3b [3] = test: SMPDL-3b expression in podocytes cultured with FSGS patient sera; assay type: cell-based, human; details: recurrent FSGS (FIG. 2)
# Procedure: FIG. 2A: Depicts low- and high-power images of immunoperoxidase staining for SMPDL-3b and synaptopodin in post-reperfusion biopsies of patients with recurrent (REC) and non-recurrent (NON-REC) FSGS. Arrows point to podocytes. Scale bars: 25 μm top and 15 μm bottom. […] All kidney biopsies were obtained prior to initiation of treatment with rituximab. An average of 13±4 glomeruli per patient were analyzed. *p<0.05, unpaired Student's t test. Data are mean±s.d. […] Data are mean±s.d. *p<0.05 and **p<0.01 by one-way ANOVA. […] Data are mean±s.d. *p<0.05 and **p<0.01 by one-way ANOVA. […] Data are mean±s.d. *p<0.05 and **p<0.01 by one-way ANOVA. […] Data are mean±s.d. *p<0.05 and **p<0.01 by one-way ANOVA.
# (A) Low- and high-power images of immunoperoxidase staining for SMPDL-3b and synaptopodin in post-reperfusion biopsies of patients with recurrent (REC) and non-recurrent (NON-REC) FSGS. Arrows point to podocytes. […] All kidney biopsies were obtained prior to initiation of treatment with rituximab. […] (G) ASMase activity per μg of total lysate protein, as evaluated by ELISA.
# [4] = tested on: human podocytes exposed to DM w DN sera; test: Human podocytes exposed to sera of diabetic patients with DN (blebbing, cholesterol, apoptosis); assay type: cell-based; details: normal human podocytes exposed to sera of patients with diabetic nephropathy; cholesterol depletion with Methyl-beta-cyclodextrin
# Procedure: DN is a chronic progressive disease that affects a sizable subset of patients with diabetes. Despite the identification of multiple risk factors that contribute to the development of DN, it has remained difficult to identify the subset of patients with diabetes at risk for DN. This led to testing to determine if an in vitro prediction assay could be developed. For this purpose, the following experiments were conducted. Non-identifiable samples of patient sera were obtained. Samples consisted of serum collected from 10 patients with diabetes and macroalbuminuria (DM w DN) and 10 diabetic normoalbuminuric patients (DM w/o DN) well matched for HgA1C (7.9%), total cholesterol levels and the duration of diabetes. Normal human sera (NHS) from 10 age and sex matched healthy subjects were also utilized as controls. Differentiated human podocytes were serum starved for 24 hours and then exposed to 4% serum of NHS, DM w/o DN, DM w DN for 24 hours. […] Total cholesterol was also determined with an enzymatic reaction. Total cholesterol was increased in podocytes treated with DM w DN when compared to DM w/o DN and NHS (FIG. 3D, *p<0.05), a phenomenon that was prevented by CD (FIG. 3D, #p<0.05). Cell blebbing was predictive of DN, as sera collected from patients before progressing to DN at the time they were normoalbuminuric already caused cell blebbing (FIG. 3E).
# LPS induced proteinuria = LPS induced proteinuria in mice; assay type: in vivo; details: 4000 mg/kg intravenously 1 hour prior to LPS, urines 30 hours after first LPS injection, p<0.05 LPS+CD versus LPS
# Procedure: FIG. 6A-FIG. 6B: Depicts that CD partially prevents LPS induced podocyte damage. FIG. 6A: Depicts the results when HPBCD was administered intravenously (4000 mg/kg) 1 hour prior to LPS injection (200 ug/20 g mouse intraperitoneally). Urines were collected […] after LPS injection and analyzed for albumin/creatinine ratio by ELISA. p<0.05 when comparing LPS+CD versus LPS. FIG. 6B: Depicts that CD prevented LPS induction of MyD88 in isolated glomeruli in vivo. Referring to FIG. 6A, the antiproteinuric effects of CD were tested in an established experimental model of LPS induced proteinuria. Three mice per group were utilized. Mice were left untreated (CTRL), or received one injection of 4000 mg/kg Hydroxypropyl-beta-cyclodextrin (CD), or two injections of 200 μg LPS 24 hours apart (LPS), or received 4000 mg/kg of CD 1 hour prior to LPS treatment (LPS+CD). Urines were collected at 30 hours after the first LPS injection and analyzed for albumin and creatinine content by ELISA. Albuminuria was determined as the ratio between albumin and creatinine (μg/mg).
# [5] = number of patients (%), N = 27, one dose of rituximab (375 mg/m^2) within 24 hours of transplant
compound,measurement,setting,value
rituximab,Graft survival,"[1]; 6 months, N = 27",100%
same,Graft survival,"[1]; 12 months, N = 27",95.8%
same,difference in graft survival between groups,"[1]; at 6 and 12 months, rituximab group vs control group",no significant difference
same,incidence of recurrent nephrotic range proteinuria and need for plasmapheresis,"[1]; between day 3 and 30 after transplantation, rituximab group vs control group",significantly lower
same,Nephrotic proteinuria w/i 1 Mo,[1]; [5],7 (26%)
same,Plasmapheresis w/I 1 Mo,[1]; [5],8 (30%)
same,binding to SMPDL-3B,SMPDL-3B [2],found to bind SMPDL-3B
same,CD 19 count,CD19+ cells; Week 0,360 ± 223
same,CD 19 count,CD19+ cells; Week 0.5,107 ± 115
same,CD 19 count,CD19+ cells; Week 1,45 ± 31
same,CD 19 count,CD19+ cells; Week 2,16 ± 23
same,CD 19 count,CD19+ cells; Week 3,5 ± 6
same,CD 19 count,CD19+ cells; Week 4,6 ± 7
same,downregulation of SMPDL-3b,SMPDL-3b [3],prevents the downregulation of SMPDL-3b
Methyl-beta-cyclodextrin,cell blebbing,[4],prevents
CC(O)COC[C@H]1O[C@@H]2O[C@H]3[C@H](O)[C@@H](O)[C@@H](O[C@H]4[C@H](O)[C@@H](O)[C@@H](O[C@H]5[C@H](O)[C@@H](O)[C@@H](O[C@H]6[C@H](O)[C@@H](O)[C@@H](O[C@H]7[C@H](O)[C@@H](O)[C@@H](O[C@H]8[C@H](O)[C@@H](O)[C@@H](O[C@H]1[C@H](O)[C@H]2O)O[C@@H]8COCC(C)O)O[C@@H]7COCC(C)O)O[C@@H]6COCC(C)O)O[C@@H]5COCC(C)O)O[C@@H]4COCC(C)O)O[C@@H]3COCC(C)O (stereo partly drawn) [Hydroxypropyl-beta-cyclodextrin],LPS induced proteinuria (albumin/creatinine ratio by ELISA),LPS induced proteinuria,protects from Lipopolysaccharide (LPS) induced proteinuria
